# Laboratory results as given in publication PMC8119466, “A screen of FDA-approved drugs identifies inhibitors of protein tyrosine phosphatase 4A3 (PTP4A3 or PRL-3)” (Scientific Reports, 2021).
# Where a name gives a salt, the structure may show the parent alone.
# Columns and labels:
# Assay type in all cases: biochemical
# Settings in all cases: FDA-approved drug screen; compared to DMSO
# recombinant PRL-1 = biological target: T1, recombinant PRL-1 (Homo sapiens, UniProt Q93096); test: In vitro phosphatase assay (DiFMUP hydrolysis), PRL-1; also: test concentration or dose not given here
# T1 construct: 6xHis (N, cleaved yes); made in house; host or cells: E. coli One Shot BL21 Star
# T1 sequence (Q93096 1-173): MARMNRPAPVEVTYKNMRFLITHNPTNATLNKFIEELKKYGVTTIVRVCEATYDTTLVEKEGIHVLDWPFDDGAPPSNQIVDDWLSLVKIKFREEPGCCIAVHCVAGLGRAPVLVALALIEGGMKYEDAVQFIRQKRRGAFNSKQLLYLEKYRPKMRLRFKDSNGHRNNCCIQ
# recombinant PRL-2 = biological target: T2, recombinant PRL-2 (Homo sapiens, UniProt Q12974); test: In vitro phosphatase assay (DiFMUP hydrolysis), PRL-2;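 also: PRL-2 activity read as DiFMUP hydrolysis after 20 min at room temperature with drug, enzyme first pre-reduced at 4 °C for 20 min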
# T2 construct: 6xHis (N, cleaved yes); made in house; host or cells: E. coli One Shot BL21 Star
# T2 sequence (Q12974 1-167): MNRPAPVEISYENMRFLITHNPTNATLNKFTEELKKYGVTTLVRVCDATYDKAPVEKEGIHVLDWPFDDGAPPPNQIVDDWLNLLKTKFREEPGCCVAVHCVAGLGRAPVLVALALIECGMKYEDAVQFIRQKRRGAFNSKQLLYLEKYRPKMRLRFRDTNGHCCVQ
# recombinant PRL-3 = biological target: T3, recombinant PRL-3 (Homo sapiens, UniProt O75365); test: In vitro phosphatase assay (DiFMUP hydrolysis), PRL-3; also: test concentration or dose not given here
# T3 construct: 6xHis (N, cleaved yes); made in house; host or cells: E. coli One Shot BL21 Star
# T3 sequence (O75365 whole entry): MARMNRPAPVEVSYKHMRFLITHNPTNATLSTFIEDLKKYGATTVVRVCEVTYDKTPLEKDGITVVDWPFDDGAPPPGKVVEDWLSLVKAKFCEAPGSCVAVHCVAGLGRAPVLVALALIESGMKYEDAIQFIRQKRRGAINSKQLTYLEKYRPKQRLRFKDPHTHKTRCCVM
SMILES,% Phosphatase Activity (compared to DMSO) PRL-1 (recombinant PRL-1) [%],% Phosphatase Activity (compared to DMSO) PRL-2 (recombinant PRL-2) [%],% Phosphatase Activity (compared to DMSO) PRL-3 (recombinant PRL-3) [%]
"C/C(=C\c1csc(C)n1)[C@@H]1C[C@@H]2O[C@]2(C)CCC[C@H](C)[C@H](O)[C@@H](C)C(=O)C(C)(C)[C@@H](O)CC(=O)O1 [Epothilone B (EPO906, Patupilone)]",98,93,80
CCCCc1ncc(/C=C(\Cc2cccs2)C(=O)O)n1Cc1ccc(C(=O)O)cc1 [Eprosartan Mesylate],89,100,72
O=C(O)CSCC(=O)NC1CCSC1=O (stereo not drawn) [Erdosteine],93,89,95
C#Cc1cccc(Nc2ncnc3cc(OCCOC)c(OCCOC)cc23)c1.Cl [Erlotinib HCl (OSI-744)],110,128,87
C#Cc1cccc(Nc2ncnc3cc(OCCOC)c(OCCOC)cc23)c1 [Erlotinib],113,110,123
CCOC(=O)CCC(=O)O[C@H]1[C@H](O[C@@H]2[C@@H](C)[C@H](O[C@H]3C[C@@](C)(OC)[C@@H](O)[C@H](C)O3)[C@@H](C)C(=O)O[C@H](CC)[C@@](C)(O)[C@H](O)[C@@H](C)C(=O)[C@H](C)C[C@@]2(C)O)O[C@H](C)C[C@@H]1N(C)C [Erythromycin Ethylsuccinate],85,82,71
CC[C@H]1OC(=O)[C@H](C)[C@@H](O[C@H]2C[C@@](C)(OC)[C@@H](O)[C@H](C)O2)[C@H](C)[C@@H](O[C@@H]2O[C@H](C)C[C@H](N(C)C)[C@H]2O)[C@](C)(O)C[C@@H](C)C(=O)[C@H](C)[C@@H](O)[C@]1(C)O [Erythromycin],91,93,79
CN(C)CCC[C@@]1(c2ccc(F)cc2)OCc2cc(C#N)ccc21 [Escitalopram Oxalate],89,117,67
CC(=O)O[C@H]1Cc2ccccc2N(C(N)=O)c2ccccc21 [Eslicarbazepine Acetate],94,117,75
COC(=O)CCc1ccc(OCC(O)CNC(C)C)cc1 (stereo not drawn) [Esmolol HCl],93,101,73
COc1ccc2[n-]c([S+]([O-])Cc3ncc(C)c(OC)c3C)nc2c1.COc1ccc2[n-]c([S+]([O-])Cc3ncc(C)c(OC)c3C)nc2c1.[Mg+2] (stereo not drawn) [Esomeprazole Magnesium],84,88,93
COc1ccc2[n-]c([S@@+]([O-])Cc3ncc(C)c(OC)c3C)nc2c1.[Na+] [Esomeprazole Sodium],112,124,92
